Source: ChEMBL document CHEMBL4665709, “Rational Avoidance of Protease Cleavage Sites and Symmetrical End-Tagging Significantly Enhances the Stability and Therapeutic Potential of Antimicrobial Peptides” (J Med Chem, 2020)
Values after ≈ are worked out from the molar mass of the structure shown. Where a SMILES comes first, the peptide text is derived from it.

Key:
[1] = Therapeutic index, ratio of MHC for human RBC to geometric mean of peptide MIC for Streptococcus agalactiae H92; format: toxicity; conditions: human red blood cells (RBC), read-out: TI
[2] = Therapeutic index, ratio of MHC for human RBC to geometric mean of peptide MIC for Staphylococcus epidermidis ATCC 12228; format: toxicity; conditions: human red blood cells (RBC), read-out: TI
[3] = Therapeutic index, ratio of MHC for human RBC to geometric mean of peptide MIC for methicillin-resistant Staphylococcus aureus 43300; format: toxicity; conditions: human red blood cells (RBC), read-out: TI
[4] = Therapeutic index, ratio of MHC for human RBC to geometric mean of peptide MIC for Enterococcus faecalis ATCC 29212; format: toxicity; conditions: human red blood cells (RBC), read-out: TI
[5] = Therapeutic index, ratio of MHC for human RBC to geometric mean of peptide MIC for Staphylococcus aureus ATCC 29213; format: toxicity; conditions: human red blood cells (RBC), read-out: TI
[6] = Therapeutic index, ratio of MHC for human RBC to geometric mean of peptide MIC for Staphylococcus aureus 11011; format: toxicity; conditions: human red blood cells (RBC), read-out: TI
[7] = Therapeutic index, ratio of MHC for human RBC to geometric mean of peptide MIC for Salmonella pullorum 7913; format: toxicity; conditions: human red blood cells (RBC), read-out: TI
[8] = Therapeutic index, ratio of MHC for human RBC to geometric mean of peptide MIC for Salmonella typhimurium 7731; format: toxicity; conditions: human red blood cells (RBC), read-out: TI
[9] = Therapeutic index, ratio of MHC for human RBC to geometric mean of peptide MIC for Salmonella choleraesuis 503; format: toxicity; conditions: human red blood cells (RBC), read-out: TI
[10] = Therapeutic index, ratio of MHC for human RBC to geometric mean of peptide MIC for Escherichia coli UB1005; format: toxicity; conditions: human red blood cells (RBC), read-out: TI
[11] = Therapeutic index, ratio of MHC for human RBC to geometric mean of peptide MIC for Salmonella typhimurium 14028; format: toxicity; conditions: human red blood cells (RBC), read-out: TI
[12] = Therapeutic index, ratio of MHC for human RBC to geometric mean of peptide MIC for Escherichia coli ATCC 25922; format: toxicity; conditions: human red blood cells (RBC), read-out: TI
Staphylococcus aureus [13] = assay: Antibacterial activity against Staphylococcus aureus ATCC 29213 after 18 to 24 hrs by CLSI-based broth microdilution method; format: functional; conditions: time hrs 18-24
Staphylococcus aureus [14] = assay: Antibacterial activity against Staphylococcus aureus 11011 after 18 to 24 hrs by CLSI-based broth microdilution method; format: functional; conditions: time hrs 18-24
Escherichia coli [15] = assay: Antibacterial activity against Escherichia coli ATCC 25922 after 18 to 24 hrs by CLSI-based broth microdilution method; format: functional; conditions: time hrs 18-24
Escherichia coli [16] = assay: Antibacterial activity against Escherichia coli UB1005 after 18 to 24 hrs by CLSI-based broth microdilution method; format: functional; conditions: time hrs 18-24
Salmonella typhimurium [17] = assay: Antibacterial activity against Salmonella typhimurium 14028 after 18 to 24 hrs by CLSI-based broth microdilution method; format: functional, Salmonella enterica subsp. enterica serovar Typhimurium; conditions: Salmonella enterica, time hrs 18-24
Salmonella typhimurium [18] = assay: Antibacterial activity against Salmonella typhimurium 7731 after 18 to 24 hrs by CLSI-based broth microdilution method; format: functional, Salmonella enterica subsp. enterica serovar Typhimurium; conditions: Salmonella enterica, time hrs 18-24
[19] = Antibacterial activity against Salmonella pullorum 7913 after 18 to 24 hrs by CLSI-based broth microdilution method; format: functional, Salmonella enterica subsp. enterica serovar Pullorum; conditions: Salmonella enterica, time hrs 18-24
Salmonella enterica = assay: Antibacterial activity against Salmonella choleraesuis 503 after 18 to 24 hrs by CLSI-based broth microdilution method; format: functional; conditions: time hrs 18-24
[20] = tested on: Staphylococcus epidermidis; assay: Antibacterial activity against Staphylococcus epidermidis ATCC 12228 after 18 to 24 hrs by CLSI-based broth microdilution method; format: functional; conditions: time hrs 18-24
Enterococcus faecalis = assay: Antibacterial activity against Enterococcus faecalis ATCC 29212 after 18 to 24 hrs by CLSI-based broth microdilution method; format: functional; conditions: time hrs 18-24
Staphylococcus aureus [21] = assay: Antibacterial activity against methicillin-resistant Staphylococcus aureus 43300 after 18 to 24 hrs by CLSI-based broth microdilution method; format: functional; conditions: time hrs 18-24
Streptococcus agalactiae = assay: Antibacterial activity against Streptococcus agalactiae H92 after 18 to 24 hrs by CLSI-based broth microdilution method; format: functional; conditions: time hrs 18-24
Erythrocyte = assay: Hemolytic activity in human RBC assessed as hemolysis; format: ADME, cell-based
[22] = Hemolytic activity in human RBC assessed as hemolysis at 1 to 128 uM relative to control; format: ADME, cell-based, Erythrocyte; conditions: human red blood cells (RBC), dose 1-128 µM, read-out: Activity
[23] = Cytotoxicity against mouse RAW264.7 cells assessed as cell viability at 128 uM by MTT assay relative to control; format: cell-based; conditions: read-out: Activity
[24] = Cytotoxicity against HEK-293T cells assessed as cell viability at 128 uM by MTT assay relative to control; format: cell-based; conditions: human, read-out: Activity

| SMILES | selectivity ratio [1] | selectivity ratio [2] | selectivity ratio [3] | selectivity ratio [4] | selectivity ratio [5] | selectivity ratio [6] | selectivity ratio [7] | selectivity ratio [8] | selectivity ratio [9] | selectivity ratio [10] | selectivity ratio [11] | selectivity ratio [12] | MIC (Staphylococcus aureus [13]) | MIC (Staphylococcus aureus [14]) | MIC (Escherichia coli [15]) | MIC (Escherichia coli [16]) | MIC (Salmonella typhimurium [17]) | MIC (Salmonella typhimurium [18]) | MIC [19] | MIC (Salmonella enterica) | further results |
| --- | --- | --- | --- | --- | --- | --- | --- | --- | --- | --- | --- | --- | --- | --- | --- | --- | --- | --- | --- | --- | --- |
| CC[C@H](C)[C@H](N)C(=O)N[C@@H](CS)C(=O)N[C@@H](CCCNC(=N)N)C(=O)N[C@@H](CCCCN)C(=O)N1CCC[C@H]1C(=O)N[C@H](C(=O)N[C@H](C(=O)N[C@@H](CS)C(=O)N[C@@H](CCCNC(=N)N)C(=O)N[C@@H](CCCCN)C(=O)N1CCC[C@H]1C(=O)N[C@H](C(N)=O)[C@@H](C)CC)[C@@H](C)CC)[C@@H](C)CC (H-ICRKPIICRKPI-NH2) | 2 | 2 | 2 | 2 | 2 | 2 | 2 | 2 | 2 | 2 | 2 | 2 | > 64 µM | > 64 µM | 64 µM (≈ 92.1 µg/mL) | > 64 µM | > 64 µM | > 64 µM | > 64 µM | > 64 µM | MIC [20]: > 64 µM; MIC (Enterococcus faecalis): > 64 µM; MIC (Staphylococcus aureus [21]): > 64 µM; MIC (Streptococcus agalactiae): > 64 µM; MHC (Erythrocyte): > 128 µM; hemolysis at up to 128 µM [22]: < 5%; viability at 128 µM [23]: > 90%; viability at 128 µM [24]: > 90% |
| CC[C@H](C)[C@H](N)C(=O)N[C@@H](CS)C(=O)N[C@@H](CCCNC(=N)N)C(=O)N[C@@H](CCCCN)C(=O)N1CCC[C@H]1C(=O)N[C@H](C(=O)N[C@H](C(=O)N[C@@H](CS)C(=O)N[C@@H](CCCNC(=N)N)C(=O)N[C@@H](CCCCN)C(=O)N1CCC[C@H]1C(=O)N[C@H](C(=O)N[C@H](C(=O)N[C@@H](CS)C(=O)N[C@@H](CCCNC(=N)N)C(=O)N[C@@H](CCCCN)C(=O)N1CCC[C@H]1C(=O)N[C@H](C(N)=O)[C@@H](C)CC)[C@@H](C)CC)[C@@H](C)CC)[C@@H](C)CC)[C@@H](C)CC (H-ICRKPIICRKPIICRKPI-NH2) | 2 | 2 | 2 | 2 | 2 | 2 | 11.3 | 11.3 | 11.3 | 11.3 | 11.3 | 11.3 | > 64 µM | > 64 µM | 8 µM (≈ 17.2 µg/mL) | 4 µM (≈ 8.6 µg/mL) | 8 µM (≈ 17.2 µg/mL) | 8 µM (≈ 17.2 µg/mL) | 64 µM (≈ 138 µg/mL) | 16 µM (≈ 34.4 µg/mL) | MIC [20]: > 64 µM; MIC (Enterococcus faecalis): > 64 µM; MIC (Staphylococcus aureus [21]): > 64 µM; MIC (Streptococcus agalactiae): > 64 µM; MHC (Erythrocyte): > 128 µM; hemolysis at up to 128 µM [22]: < 5%; viability at 128 µM [23]: > 90%; viability at 128 µM [24]: > 90% |
| CC[C@H](C)[C@H](N)C(=O)N[C@@H](CS)C(=O)N[C@@H](CCCNC(=N)N)C(=O)N[C@@H](CCCCN)C(=O)N1CCC[C@H]1C(=O)N[C@H](C(=O)N[C@H](C(=O)N[C@@H](CS)C(=O)N[C@@H](CCCNC(=N)N)C(=O)N[C@@H](CCCCN)C(=O)N1CCC[C@H]1C(=O)N[C@H](C(=O)N[C@H](C(=O)N[C@@H](CS)C(=O)N[C@@H](CCCNC(=N)N)C(=O)N[C@@H](CCCCN)C(=O)N1CCC[C@H]1C(=O)N[C@H](C(=O)N[C@H](C(=O)N[C@@H](CS)C(=O)N[C@@H](CCCNC(=N)N)C(=O)N[C@@H](CCCCN)C(=O)N1CCC[C@H]1C(=O)N[C@H](C(=O)N[C@H](C(=O)N[C@@H](CS)C(=O)N[C@@H](CCCNC(=N)N)C(=O)N[C@@H](CCCCN)C(=O)N1CCC[C@H]1C(=O)N[C@H](C(N)=O)[C@@H](C)CC)[C@@H](C)CC)[C@@H](C)CC)[C@@H](C)CC)[C@@H](C)CC)[C@@H](C)CC)[C@@H](C)CC)[C@@H](C)CC)[C@@H](C)CC (H-ICRKPIICRKPIICRKPIICRKPIICRKPI-NH2) | 2 | 2 | 2 | 2 | 2 | 2 | 28.5 | 28.5 | 28.5 | 28.5 | 28.5 | 28.5 | > 64 µM | > 64 µM | 4 µM (≈ 14.3 µg/mL) | 2 µM (≈ 7.14 µg/mL) | 4 µM (≈ 14.3 µg/mL) | 4 µM (≈ 14.3 µg/mL) | 8 µM (≈ 28.6 µg/mL) | 8 µM (≈ 28.6 µg/mL) | MIC [20]: > 64 µM; MIC (Enterococcus faecalis): > 64 µM; MIC (Staphylococcus aureus [21]): > 64 µM; MIC (Streptococcus agalactiae): > 64 µM; MHC (Erythrocyte): > 128 µM; hemolysis at up to 128 µM [22]: < 5%; viability at 128 µM [23]: > 90%; viability at 128 µM [24]: > 90% |
| CC[C@H](C)[C@H](N)C(=O)N[C@H](C(=O)N[C@@H](CS)C(=O)N[C@@H](CCCNC(=N)N)C(=O)N[C@@H](CCCCN)C(=O)N1CCC[C@H]1C(=O)N[C@H](C(=O)N[C@H](C(=O)N[C@@H](CS)C(=O)N[C@@H](CCCNC(=N)N)C(=O)N[C@@H](CCCCN)C(=O)N1CCC[C@H]1C(=O)N[C@H](C(=O)N[C@H](C(N)=O)[C@@H](C)CC)[C@@H](C)CC)[C@@H](C)CC)[C@@H](C)CC)[C@@H](C)CC (H-IICRKPIICRKPII-NH2) | 2 | 2 | 2 | 2 | 2 | 2 | 4 | 4 | 4 | 4 | 4 | 4 | > 64 µM | > 64 µM | 16 µM (≈ 26.6 µg/mL) | 16 µM (≈ 26.6 µg/mL) | 32 µM (≈ 53.3 µg/mL) | 32 µM (≈ 53.3 µg/mL) | > 64 µM | > 64 µM | MIC [20]: > 64 µM; MIC (Enterococcus faecalis): > 64 µM; MIC (Staphylococcus aureus [21]): > 64 µM; MIC (Streptococcus agalactiae): > 64 µM; MHC (Erythrocyte): > 128 µM; hemolysis at up to 128 µM [22]: < 5%; viability at 128 µM [23]: > 90%; viability at 128 µM [24]: > 90% |
| CC[C@H](C)[C@H](N)C(=O)N[C@H](C(=O)N[C@@H](CS)C(=O)N[C@@H](CCCNC(=N)N)C(=O)N[C@@H](CCCCN)C(=O)N1CCC[C@H]1C(=O)N[C@H](C(=O)N[C@H](C(=O)N[C@@H](CS)C(=O)N[C@@H](CCCNC(=N)N)C(=O)N[C@@H](CCCCN)C(=O)N1CCC[C@H]1C(=O)N[C@H](C(=O)N[C@H](C(=O)N[C@@H](CS)C(=O)N[C@@H](CCCNC(=N)N)C(=O)N[C@@H](CCCCN)C(=O)N1CCC[C@H]1C(=O)N[C@H](C(=O)N[C@H](C(N)=O)[C@@H](C)CC)[C@@H](C)CC)[C@@H](C)CC)[C@@H](C)CC)[C@@H](C)CC)[C@@H](C)CC)[C@@H](C)CC (H-IICRKPIICRKPIICRKPII-NH2) | 2 | 2 | 2 | 2 | 2 | 2 | 14.2 | 14.2 | 14.2 | 14.2 | 14.2 | 14.2 | > 64 µM | > 64 µM | 4 µM (≈ 9.5 µg/mL) | 4 µM (≈ 9.5 µg/mL) | 8 µM (≈ 19 µg/mL) | 8 µM (≈ 19 µg/mL) | 32 µM (≈ 76 µg/mL) | 16 µM (≈ 38 µg/mL) | MIC [20]: 64 µM (≈ 152 µg/mL); MIC (Enterococcus faecalis): > 64 µM; MIC (Staphylococcus aureus [21]): 64 µM (≈ 152 µg/mL); MIC (Streptococcus agalactiae): 64 µM (≈ 152 µg/mL); MHC (Erythrocyte): > 128 µM; hemolysis at up to 128 µM [22]: < 5%; viability at 128 µM [23]: > 90%; viability at 128 µM [24]: > 90% |
